Reference: US20080045514A1 (Cytovia, Inc., priority 2006, published 2008)
Structures can show the parent of a compound that is named as a salt.

Legend:
Type in all cases: cell-based
[1] = system: human breast cancer cell line T-47D; assay: Caspase cascade activation (EC50), T-47D; conditions: Homo sapiens; T47D cells; caspase cascade activation; read-out: caspase potency (EC50) T47D
Method in brief: (§1)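 48 h compound exposure (0.016–10 μM final) at 37 °C, 5% CO2; then DEVD-R110 substrate in lysolecithin/DTT/PIPES pH 7.2 buffer, 3 h RT. Fluorescence ex485/em530; net RFU = T=3 h minus control T=0; ratio to control; sigmoidal fit → EC50 (nM).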

[2] = system: human hepatocellular carcinoma cell line SNU398; assay: Caspase cascade activation (EC50), SNU398; conditions: Homo sapiens, SNU-398; SNU398 cells; caspase cascade activation; read-out: caspase potency (EC50) SNU398
Method in brief: as §1

[3] = system: human colon carcinoma cell line HCT116; assay: Caspase cascade activation (EC50), HCT116; conditions: Homo sapiens, HCT-116; HCT116 cells; caspase cascade activation; read-out: caspase potency (EC50) HCT116
Method in brief: as §1

[4] = system: human cancer cell line H1299; assay: Caspase cascade activation (EC50), H1299; conditions: NCI-H1299, H1299 cells, read-out: caspase potency (EC50) H1299
Description: (§2) Human breast cancer cell lines T-47D, human hepatocellular carcinoma cell line SNU398, human colon carcinoma cell line HCT116, human cancer cell line H1299, human Burkitt's lymphoma cell line Namalwa, human lymphoma cell line Raji, and human B cell lymphoblastoid cell line Ramos were grown according to media component mixtures designated by American Type Culture Collection+10% FCS (Invitrogen Corporation), in a 5% CO2-95% humidity incubator at 37° C. T-47D and H1299 cells were maintained at a cell density between 50 and 80% confluency at a cell density of 0.1 to 0.6×10^6 cells/mL. Cells were harvested at 600×g and resuspended at 0.65×10^6 cells/mL into appropriate media+10% FCS. An aliquot of 22.5 μL of cells was added to a well of a 384-well microtiter plate containing 2.5 μL of a 10% DMSO in RPMI-1640 media solution containing 0.16 to 100 μM of 3-(2-chlorophenyl)-6-(3,4-methylenedioxyphenyl)-7H-[1,2,4]triazolo[3,4-b][1,3,4]thiadiazine or other test compound (0.016 to 10 μM final). An aliquot of 22.5 μL of cells was added to a well of a 384-well microtiter plate containing 2.5 μL of a 10% DMSO in RPMI-1640 media solution without test compound as the control sample. The samples were mixed by agitation and then incubated at 37° C. for 48 h in a 5% CO2-95% humidity incubator. After incubation, the samples were removed from the incubator and 25 μL of a solution containing 14 μM of N—(Ac-DEVD)-N′-ethoxycarbonyl-R110 (SEQ ID No.:1) fluorogenic substrate (Cytovia, Inc.; WO99/18856), 20% sucrose (Sigma), 20 mM DTT (Sigma), 200 mM NaCl (Sigma), 40 mM Na PIPES buffer pH 7.2 (Sigma), and 500 μg/mL lysolecithin (Calbiochem) was added. The samples were mixed by agitation and incubated at room temperature. Using a fluorescent plate reader (Model SPECTRAfluor Plus, Tecan), an initial reading (T=0) was made approximately 1-2 min after addition of the substrate solution, employing excitation at 485 nm and emission at 530 nm, to determine the background fluorescence of the control sample. After the 3 h incubation, the samples were read for fluorescence as above (T=3 h). Calculation: The Relative Fluorescence Unit values (RFU) were used to calculate the sample readings as follows: RFU(T=3H)−Control RFU(T=0)=Net RFU(T=3h) The activity of caspase cascade activation was determined by the ratio of the net RFU value for 3-(2-chlorophenyl)-6-(3,4-methylenedioxyphenyl)-7H-[1,2,4]triazolo[3,4-b][1,3,4]thiadiazine (Example P) or other test compound to that of control samples. The EC50 (nM) was determined by a sigmoidal dose-response calculation (Prism 3.0, GraphPad Software Inc.).

[5] = system: human Burkitt's lymphoma cell line Namalwa; assay: Caspase cascade activation (EC50), Namalwa; conditions: Homo sapiens, Burkitts lymphoma cell; Namalwa cells; caspase cascade activation; read-out: caspase potency (EC50) Namalwa
Method in brief: as §1

[6] = system: human lymphoma cell line Raji; assay: Caspase cascade activation (EC50), Raji; conditions: Homo sapiens, RAJI cells, read-out: caspase potency (EC50) RAJI
Description: as §2

[7] = system: human B cell lymphoblastoid cell line Ramos; assay: Caspase cascade activation (EC50), Ramos; conditions: Homo sapiens, RAMOS cells, read-out: caspase potency (EC50) RAMOS
Description: as §2

SMILES | EC50 [1] | EC50 [2] | EC50 [3] | EC50 [4] | EC50 [5] | EC50 [6] | EC50 [7]
CCOc1ccc(-c2nnc3n2N=C(c2ccc4c(c2)OCO4)CS3)cc1 [Example H2, 3-(4-Ethoxyphenyl)-6-(3,4-methylenedioxyphenyl)-7H-[1,2,4]triazolo[3,4-b][1,3,4]thiadiazine] | > 1000 nM | > 1000 nM | > 1000 nM | > 1000 nM | > 1000 nM | > 1000 nM | 542 nM
COc1cccc(-c2nnc3n2N=C(c2ccc4c(c2)OCO4)CS3)c1 [Example A1, 3-(3-Methoxyphenyl)-6-(3,4-methylenedioxyphenyl)-7H-[1,2,4]triazolo[3,4-b][1,3,4]thiadiazine] | 500 nM | 390 nM | 546 nM | 2490 nM | 426 nM | 507 nM | 447 nM
COc1ccc(C2=Nn3c(nnc3-c3ccc(C)cc3)SC2)cc1OC [A, 3-(4-Methylphenyl)-6-(3,4-dimethoxyphenyl)-7H-[1,2,4]triazolo[3,4-b][1,3,4]thiadiazine] | 2420 nM | – | – | 2730 nM | – | – | –
COc1cccc(-c2nnc3n2N=C(c2ccc4ccccc4c2)CS3)c1 [Example B1, 3-(3-Methoxyphenyl)-6-(2-naphthyl)-7H-[1,2,4]triazolo[3,4-b][1,3,4]thiadiazine] | 1420 nM | 930 nM | 1310 nM | 1710 nM | – | – | –
CCOc1ccc(C2=Nn3c(nnc3-c3ccccc3OC)SC2)cc1 [Example B2, 3-(2-Methoxyphenyl)-6-(4-ethoxyphenyl)-7H-[1,2,4]triazolo[3,4-b][1,3,4]thiadiazine] | 175 nM | 30 nM | 40 nM | 106 nM | 106 nM | – | –
CCOc1ccc(-c2nnc3n2N=C(c2ccc(O)c(O)c2)CS3)cc1 [Example F1, 3-(4-Ethoxyphenyl)-6-(3,4-dihydroxyphenyl)-7H-[1,2,4]triazolo[3,4-b][1,3,4]thiadiazine] | 2580 nM | – | – | 2640 nM | – | – | –
CCOc1cccc(-c2nnc3n2N=C(c2ccc(OC)cc2)CS3)c1 [Example D1, 3-(3-Ethoxyphenyl)-6-(4-methoxyphenyl)-7H-[1,2,4]triazolo[3,4-b][1,3,4]thiadiazine] | 2300 nM | 778 nM | 1500 nM | 2710 nM | – | – | –
CCOc1ccc(C2=Nn3c(nnc3-c3ccc(Cl)cc3Cl)SC2)cc1 [Example H1, 3-(2,4-Dichlorophenyl)-6-(4-ethoxyphenyl)-7H-[1,2,4]triazolo[3,4-b][1,3,4]thiadiazine] | 553 nM | 41 nM | 161 nM | 2010 nM | – | – | –
COc1ccc(C2=Nn3c(nnc3-c3ccc(Cl)cc3)SC2)cc1OC [E, 3-(4-Chlorophenyl)-6-(3,4-dimethoxyphenyl)-7H-[1,2,4]triazolo[3,4-b][1,3,4]thiadiazine] | 1880 nM | – | – | 2100 nM | – | – | –
Oc1ccc(C2=Nn3c(nnc3-c3ccc(Cl)cc3)SC2)cc1 [Example 6, 3-(4-Chlorophenyl)-6-(4-hydroxyphenyl)-7H-[1,2,4]triazolo[3,4-b][1,3,4]thiadiazine hydrobromide] | 855 nM | 5430 nM | > 10000 nM | – | > 10000 nM | > 10000 nM | 7650 nM

Next, values leading:

EC50 [1] | EC50 [2] | EC50 [3] | EC50 [4] | EC50 [5] | EC50 [6] | EC50 [7] | SMILES
2490 nM | 1010 nM | 1580 nM | 1820 nM | – | – | – | CCOc1ccc(C2=Nn3c(nnc3-c3ccc(OC)cc3)SC2)cc1 [I, 3-(4-Methoxyphenyl)-6-(4-ethoxyphenyl)-7H-[1,2,4]triazolo[3,4-b][1,3,4]thiadiazine]
323 nM | 226 nM | 284 nM | 1260 nM | 313 nM | 619 nM | 316 nM | COc1cc(-c2nnc3n2N=C(c2ccccc2)CS3)cc(OC)c1OC [Example S1, 3-(3,4,5-Trimethoxyphenyl)-6-phenyl-7H-[1,2,4]triazolo[3,4-b][1,3,4]thiadiazine]
3270 nM | 2550 nM | > 10000 nM | 2930 nM | > 10000 nM | > 1000 nM | > 1000 nM | COc1ccc(-c2nnc3n2N=C(c2ccc4c(c2)OCO4)CS3)cc1 [J, 3-(4-Methoxyphenyl)-6-(3,4-methylenedioxyphenyl)-7H-[1,2,4]triazolo[3,4-b][1,3,4]thiadiazine]
5350 nM | – | – | 5140 nM | – | – | – | Clc1ccccc1-c1nnc2n1N=C(c1ccc(Br)cc1)CS2 [Q, 3-(2-Chlorophenyl)-6-(4-bromophenyl)-7H-[1,2,4]triazolo[3,4-b][1,3,4]thiadiazine]
2810 nM | 331 nM | 693 nM | 2330 nM | – | – | – | CCOc1ccc(C2=Nn3c(nnc3-c3cccc(OC)c3)SC2)cc1 [Z, 3-(3-Methoxyphenyl)-6-(4-ethoxyphenyl)-7H-[1,2,4]triazolo[3,4-b][1,3,4]thiadiazine]
1340 nM | 129 nM | 279 nM | 1000 nM | – | – | – | CCOc1ccc(C2=Nn3c(nnc3-c3ccccc3Cl)SC2)cc1 [O, 3-(2-Chlorophenyl)-6-(4-ethoxyphenyl)-7H-[1,2,4]triazolo[3,4-b][1,3,4]thiadiazine]
276 nM | 111 nM | 130 nM | – | 153 nM | 72 nM | 78 nM | COc1cc(-c2nnc3n2N=C(c2ccc(Cl)cc2)CS3)cc(OC)c1OC [Example W1, 3-(3,4,5-Trimethoxyphenyl)-6-(4-chlorophenyl)-7H-[1,2,4]triazolo[3,4-b][1,3,4]thiadiazine]
5540 nM | – | – | 3570 nM | – | – | – | Cc1cccc(-c2nnc3n2N=C(c2ccc4ccccc4c2)CS3)c1 [U, 3-(3-Methylphenyl)-6-(2-naphthyl)-7H-[1,2,4]triazolo[3,4-b][1,3,4]thiadiazine]
2640 nM | 2650 nM | 2480 nM | – | 2510 nM | 3410 nM | 2510 nM | COc1cc(-c2nnc3n2N=C(c2cccc(Br)c2)CS3)cc(OC)c1OC [Example X1, 3-(3,4,5-Trimethoxyphenyl)-6-(3-bromophenyl)-7H-[1,2,4]triazolo[3,4-b][1,3,4]thiadiazine]
1320 nM | 1040 nM | > 10000 nM | – | 321 nM | 622 nM | 463 nM | COc1cc(-c2nnc3n2N=C(c2ccc(F)cc2)CS3)cc(OC)c1OC [Example V1, 3-(3,4,5-Trimethoxyphenyl)-6-(4-fluorophenyl)-7H-[1,2,4]triazolo[3,4-b][1,3,4]thiadiazine]
2870 nM | – | – | 2590 nM | – | – | – | Clc1ccc(-c2nnc3n2N=C(c2ccccc2)CS3)c(Cl)c1 [Example J1, 3-(2,4-Dichlorophenyl)-6-phenyl-7H-[1,2,4]triazolo[3,4-b][1,3,4]thiadiazine]
284 nM | 101 nM | 240 nM | – | 200 nM | 176 nM | 219 nM | COc1cc(-c2nnc3n2N=C(c2ccc(O)c(O)c2)CS3)cc(OC)c1OC [Example Z1, 3-(3,4,5-Trimethoxyphenyl)-6-(3,4-dihydroxyphenyl)-7H-[1,2,4]triazolo[3,4-b][1,3,4]thiadiazine]
